From publication PMC4674167 (The Journal of organic chemistry, 2015)
Where two headings read alike, the source gives them in different places.

Assays:
[1] = rat, in vivo, cited from earlier work; for p.o. AUC0-inf / p.o. Cmax: po, 25 mg/kg
[2] = rat, in vivo; for i.v. AUC0-inf / i.v. CL / i.v. t1/2: iv, 2.5 mg/kg; for p.o. AUC0-inf / p.o. Cmax: po, 25 mg/kg
[3] = system: M. tuberculosis strain H37Rv; assay type: cell-based, Mycobacterium tuberculosis; conditions: for fold more potent in MIC than the 3′-α-fluoro diastereomer: 14 vs 15, 16 vs 17, M. tuberculosis H37Rv
[4] = molecular target: MbtA (Mycobacterium tuberculosis, UniProt P71716); assay type: biochemical; conditions: for Ki: read-out: Ki^app, apparent Ki against MbtA; for fold more potent in MbtA inhibition than the 3′-α-fluoro diastereomer: 14 vs 15, 16 vs 17
[5] = Single dose pharmacokinetics in cannulated rats

Chain of MbtA (P71716 whole entry): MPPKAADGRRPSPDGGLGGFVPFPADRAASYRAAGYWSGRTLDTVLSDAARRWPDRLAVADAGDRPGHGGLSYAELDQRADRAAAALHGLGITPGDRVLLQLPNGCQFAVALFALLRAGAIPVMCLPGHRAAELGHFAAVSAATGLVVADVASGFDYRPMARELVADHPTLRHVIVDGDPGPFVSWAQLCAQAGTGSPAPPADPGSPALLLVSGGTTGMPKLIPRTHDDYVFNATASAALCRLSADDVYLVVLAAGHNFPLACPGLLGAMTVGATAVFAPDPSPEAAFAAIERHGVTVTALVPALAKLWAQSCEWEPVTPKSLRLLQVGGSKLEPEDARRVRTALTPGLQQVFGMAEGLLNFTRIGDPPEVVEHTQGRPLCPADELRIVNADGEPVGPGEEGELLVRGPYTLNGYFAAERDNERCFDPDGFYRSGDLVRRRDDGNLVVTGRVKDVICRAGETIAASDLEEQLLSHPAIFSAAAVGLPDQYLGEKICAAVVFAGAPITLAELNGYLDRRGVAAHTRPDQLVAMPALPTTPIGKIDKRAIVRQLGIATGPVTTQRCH

Structure (SMILES)	F (relative oral bioavailability) [2] [%]	i.v. AUC0-inf [2] [μg.min.mL^–1]	i.v. CL [2] [mL.min^–1.kg^–1]	i.v. t1/2 [2] [min]	p.o. AUC0-inf [2] [μg.min.mL^–1]	p.o. Cmax [2] [μg.mL^–1]	MIC [3] [µM]	Ki [4] [nM]	other results
Nc1ncnc2c1ncn2[C@@H]1O[C@H](COS(=O)(=O)NC(=O)c2ccccc2O)[C@@H](O)[C@H]1O [compound 10, 5′-O-[N-(salicyl)sulfamoyl]adenosine]									i.v. AUC0-inf ([1]; iv, 2.5 mg/kg): 519 ± 115 μg.min.mL^–1; i.v. t1/2 ([1]; iv, 2.5 mg/kg): 11.2 ± 2.2 min; p.o. AUC0-inf [1]: 66 ± 41 μg.min.mL^–1; p.o. Cmax [1]: 0.40 ± 0.20 μg.mL^–1; F (relative oral bioavailability) [1]: 1.3 ± 0.7%
Nc1ncnc2c1ncn2[C@@H]1O[C@H](CNS(=O)(=O)NC(=O)c2ccccc2O)[C@@H](O)[C@H]1O [compound 11]									i.v. AUC0-inf ([1]; iv, 2.5 mg/kg): 304 ± 60 μg.min.mL^–1; i.v. CL ([1]; iv, 2.5 mg/kg): 8.4 ± 1.9 mL.min^–1.kg^–1; i.v. t1/2 ([1]; iv, 2.5 mg/kg): 10.6 ± 0.7 min; p.o. AUC0-inf [1]: 100 ± 14 μg.min.mL^–1; p.o. Cmax [1]: 0.70 ± 0.07 μg.mL^–1; F (relative oral bioavailability) [1]: 3.5 ± 0.2%
CCN(CC)CC.Nc1ncnc2c1ncn2[C@@H]1O[C@H](CNS(=O)(=O)NC(=O)c2ccccc2O)[C@@H](O)[C@H]1F [compound 12, 9-[2,5-Dideoxy-2-fluoro-5-{N-(N-2-hydroxybenzoyl)sulfamoyl}amino-β-D-ribofuranosyl]adenine Triethylammonium Salt]	1.8 ± 0.9	1040 ± 330	2.5 ± 0.9	32.5 ± 7.4	187 ± 11	0.46 ± 0.30	0.19	1.7 to 1.8	Ki ([4]; listed as C00001): 1.7 ± 0.1 nM
CCN(CC)CC.Nc1ncnc2c1ncn2[C@@H]1O[C@H](CNS(=O)(=O)NC(=O)c2ccccc2O)[C@@H](O)[C@@H]1F [compound 13, 9-[2,5-Dideoxy-2-fluoro-5-{N-(N-2-hydroxybenzoyl)sulfamoyl}amino-β-D-arabinofuranosyl]adenine Triethylammonium Salt]	4.7 ± 1.1	913 ± 65	2.7 ± 0.2	31.7 ± 1.9	422 ± 70	1.09 ± 0.03	0.15	1.7 to 1.8	Ki ([4]; listed as C00003): 1.8 ± 0.1 nM
CCN(CC)CC.Nc1ncnc2c1ncn2[C@@H]1O[C@H](CNS(=O)(=O)NC(=O)c2ccccc2O)[C@H](F)[C@H]1O [compound 14, 9-[3,5-Dideoxy-3-fluoro-5-{N-(N-2-hydroxybenzoyl)sulfamoyl}amino-β-D-xylofuranosyl]adenine Triethylammonium Salt]	2.3 ± 0.4	366 ± 33	6.9 ± 0.3	17.4 ± 1.4	84 ± 12	0.64 ± 0.22	0.60	0.6 ± 0.3	fold more potent in MIC than the 3′-α-fluoro diastereomer [3]: fourfold; fold more potent in MbtA inhibition than the 3′-α-fluoro diastereomer [4]: approximately 10 fold
CCN(CC)CC.Nc1ncnc2c1ncn2[C@@H]1O[C@H](CNS(=O)(=O)NC(=O)c2ccccc2O)[C@@H](F)[C@H]1O [compound 15, 9-[3,5-Dideoxy-3-fluoro-5-{N-(N-2-hydroxybenzoyl)sulfamoyl}amino-β-D-ribofuranosyl]adenine Triethylammonium Salt]	3.5 ± 0.2	807 ± 78	3.1 ± 0.3	37.0 ± 1.7	266 ± 2	0.92 ± 0.04	2.3	6.4 ± 0.3	
CCN(CC)CC.Nc1ncnc2c1ncn2[C@@H]1O[C@H](CNS(=O)(=O)NC(=O)c2ccccc2O)[C@H](F)[C@H]1F [compound 16, 9-[2,3,5-Trideoxy-2,3-difluoro-5-{N-(N-2-hydroxybenzoyl)sulfamoyl}amino-β-D-xylofuranosyl]adenine Triethylammonium Salt]	11.4 ± 0.3	312 ± 54	8.5 ± 1.6	17.2 ± 1.3	362 ± 85	0.97 ± 0.42	0.78	1.4 ± 0.3	fold more potent in MIC than the 3′-α-fluoro diastereomer [3]: ca. 50 fold; fold more potent in MbtA inhibition than the 3′-α-fluoro diastereomer [4]: ~100 fold
CCN(CC)CC.Nc1ncnc2c1ncn2[C@@H]1O[C@H](CNS(=O)(=O)NC(=O)c2ccccc2O)[C@@H](F)[C@H]1F [compound 17, 9-[2,3,5-Trideoxy-2,3-difluoro-5-{N-(N-2-hydroxybenzoyl)sulfamoyl}amino-β-D-ribofuranosyl]adenine Triethylammonium Salt]	5.3 ± 1.3	10100 ± 2200	0.24 ± 0.06	267 ± 36	4730 ± 540	5.99 ± 0.56	37	139 ± 10	fold increase in half-life compared to SAL-AMS (10) [5]: ca. 25 fold; fold higher Cmax compared to SAL-AMS (10) ([5]; p.o. 25 mg/kg): 15 fold; fold increase in F% compared to SAL-AMS (10) ([5]; p.o. 25 mg/kg): fourfold; fold increased oral exposure (oral AUC) compared to SAL-AMS (10) ([5]; p.o. 25 mg/kg): ca. 75 fold
